Results taken from patent publication US11530206B2, “Phenylaminopyrimidine amide autophagy inhibitors and methods of use thereof” (Deciphera Pharmaceuticals, LLC, priority 2019, dated 2022).

Tests used:
ULK kinase [1] = experiment: pATG13 levels of mutant KRas A549 cells after treatment with ULK inhibitors in combination with trametinib (ELISA); format: cell-based, human; conditions: A549 (KRAS mutant) lung cancer cells, 250 nM trametinib, overnight, pS318-ATG13
Procedure, shortened: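 Lysates with phosphatase/protease inhibitors assayed by pATG13 ELISA, A450 minus A540 background and blank-corrected. % ATG13 phosphorylation versus DMSO controls fitted to IC50.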

ULK kinase [2] = experiment: pATG13 levels of mutant KRas MiaPaCa-2 cells after treatment with ULK inhibitors in combination with trametinib (ELISA); format: cell-based, human; conditions: MiaPaCa-2 pancreatic cancer cells, 250 nM trametinib, overnight, pS318-ATG13
Procedure, shortened: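 MiaPaCa-2 cells in DMEM with 10% FBS and 2.5% horse serum were pretreated with trametinib or DMSO, then given a test-compound dose response overnight at 37° C. Lysates were assayed for phospho-ATG13 by ELISA (A450 minus A540 background, blank-corrected). % phosphorylation was calculated relative to controls and fitted to IC50.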

ULK kinase [3] = experiment: pATG13 levels of mutant BRAF A375 cells after treatment with ULK inhibitors in combination with trametinib (ELISA); format: cell-based, human; conditions: A375 malignant melanoma cells (mutant BRAF), 250 nM trametinib, overnight, pS318-ATG13
Experimental: A375 human malignant melanoma cancer cells (20000 cells/well) were added to a 96-well tissue-culture treated plate in 100 μL of pre-warmed DMEM medium supplemented with 10% characterized fetal bovine serum (Invitrogen, Carlsbad, Calif.), 100 units/mL penicillin G, and 100 μg/mL streptomycin and allowed to grow overnight at 37° C., 5% CO2, and 95% humidity. The following day, 100 μL of media containing trametinib or DMSO as a control was added to wells. […] A dose response of a test compound (0.5 μL per well) was added. DMSO (0.5 μL) was added to control wells. The plate was briefly shaken to mix wells and then incubated at 37° C. overnight. The next day, the media was aspirated and cells were washed with Dulbecco's Phosphate Buffered Saline (Gibco). Cells were lysed using MPER lysis buffer (Pierce, Rockford, Ill.) containing Halt Phosphatase and Protease Inhibitors (Pierce, Rockford, Ill.) and Phosphatase inhibitor cocktail 2 (Sigma, St. Louis, Mo.) at 4° C. for 10 minutes with shaking.
Plate wells were washed with ELISA wash buffer. Cell lysate was added to wells and incubated at room temperature for 2 hours. Plate wells were washed with ELISA wash buffer. […] Plate wells were washed with ELISA wash buffer. […] Plate wells were washed with ELISA wash buffer. […] The reaction was stopped with 2N Sulfuric Acid. The plate was analyzed at on a plate reader measuring absorbance at 450 nm and 540 nm (background). Signal was calculated by first subtracting the background absorbance at 540 nm from the absorbance at 450 nm for each well. Next, the background corrected absorbance at 450 nm from blank wells was subtracted from test wells. Data was compared to control wells to determine % ATG13 phosphorylation. GraphPad Prism was used to calculate IC50 values.

LRRK2 kinase = molecular target: T1, LRRK2 kinase (Homo sapiens, UniProt Q5S007); experiment: Biochemical assay for LRRK2 (coupled pyruvate kinase/lactate dehydrogenase assay); conditions: 26.4 nM LRRK2 (residues 970-2528), peptide substrate, 1 mM ATP
T1 construct: purchased Thermo Fisher
Procedure, shortened: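 Recombinant LRRK2 (26.4 nM) with 0.1 mM peptide substrate and 1 mM ATP in Tris pH 7.5/MgCl2 buffer; ADP production coupled via PK/LDH to NADH oxidation, A340 read continuously 6 h at 30 °C. Rates from 2–3 h window converted to % inhibition versus no-compound and reference-inhibitor controls; IC50 fitted.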

T1 sequence (Q5S007 with tags, fused parts or gaps): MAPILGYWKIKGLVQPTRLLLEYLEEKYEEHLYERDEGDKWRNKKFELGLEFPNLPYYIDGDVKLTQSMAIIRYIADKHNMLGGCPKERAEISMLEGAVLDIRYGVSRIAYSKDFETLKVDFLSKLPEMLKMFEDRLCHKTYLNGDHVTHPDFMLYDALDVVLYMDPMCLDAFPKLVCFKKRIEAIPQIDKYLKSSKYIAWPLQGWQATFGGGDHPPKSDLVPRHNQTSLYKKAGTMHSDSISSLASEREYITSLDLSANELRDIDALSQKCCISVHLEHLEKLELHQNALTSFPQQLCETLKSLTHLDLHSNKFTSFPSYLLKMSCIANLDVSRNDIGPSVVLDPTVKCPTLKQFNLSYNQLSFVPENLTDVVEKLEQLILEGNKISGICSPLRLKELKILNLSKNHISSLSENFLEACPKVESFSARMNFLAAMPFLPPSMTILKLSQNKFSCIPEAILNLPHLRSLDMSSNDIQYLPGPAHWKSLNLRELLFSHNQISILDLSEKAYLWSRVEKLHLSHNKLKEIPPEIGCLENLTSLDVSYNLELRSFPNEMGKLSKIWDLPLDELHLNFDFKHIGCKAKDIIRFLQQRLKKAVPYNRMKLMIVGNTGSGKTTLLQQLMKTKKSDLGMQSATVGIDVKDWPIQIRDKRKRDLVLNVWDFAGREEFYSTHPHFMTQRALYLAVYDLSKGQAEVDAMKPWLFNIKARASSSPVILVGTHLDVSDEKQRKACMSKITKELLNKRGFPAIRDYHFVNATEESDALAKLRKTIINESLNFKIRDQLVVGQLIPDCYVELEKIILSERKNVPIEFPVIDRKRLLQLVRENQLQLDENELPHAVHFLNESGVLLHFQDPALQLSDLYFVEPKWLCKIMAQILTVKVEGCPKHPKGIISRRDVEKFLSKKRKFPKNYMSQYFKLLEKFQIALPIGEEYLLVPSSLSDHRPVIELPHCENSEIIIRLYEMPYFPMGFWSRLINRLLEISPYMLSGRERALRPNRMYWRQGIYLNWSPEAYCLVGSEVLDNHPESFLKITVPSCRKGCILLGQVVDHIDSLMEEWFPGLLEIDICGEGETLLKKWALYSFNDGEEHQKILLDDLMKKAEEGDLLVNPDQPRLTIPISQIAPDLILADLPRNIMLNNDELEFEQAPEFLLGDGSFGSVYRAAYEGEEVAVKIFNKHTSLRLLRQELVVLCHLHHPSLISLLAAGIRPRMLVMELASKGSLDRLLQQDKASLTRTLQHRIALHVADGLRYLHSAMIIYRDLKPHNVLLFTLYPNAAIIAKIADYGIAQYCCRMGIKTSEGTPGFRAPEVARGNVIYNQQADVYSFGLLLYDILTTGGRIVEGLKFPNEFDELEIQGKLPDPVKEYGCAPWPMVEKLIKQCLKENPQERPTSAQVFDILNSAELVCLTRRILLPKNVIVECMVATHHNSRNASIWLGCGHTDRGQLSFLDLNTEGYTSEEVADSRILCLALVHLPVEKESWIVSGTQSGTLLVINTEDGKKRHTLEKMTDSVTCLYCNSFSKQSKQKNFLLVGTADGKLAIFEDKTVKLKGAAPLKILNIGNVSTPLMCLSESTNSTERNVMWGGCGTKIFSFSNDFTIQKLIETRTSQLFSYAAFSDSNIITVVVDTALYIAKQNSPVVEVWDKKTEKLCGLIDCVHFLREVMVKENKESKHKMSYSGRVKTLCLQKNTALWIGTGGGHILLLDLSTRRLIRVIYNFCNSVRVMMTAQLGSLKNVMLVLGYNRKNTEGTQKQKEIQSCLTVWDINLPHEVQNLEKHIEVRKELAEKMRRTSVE

SMILES | IC50 (ULK kinase [1]) [nM] | IC50 (ULK kinase [2]) [nM] | IC50 (ULK kinase [3]) [nM] | IC50 (LRRK2 kinase) [nM]
CN1CCN(c2ccc(Nc3ncc(C(F)(F)F)c(NCCCN4CCCCC4=O)n3)c(C3CC3)c2)CC1 [Example 14] | 10 to 100 | 10 to 100 | 10 to 100 | 1 to 100
CCc1cc(N2CCN(C)CC2)ccc1Nc1ncc(C(F)(F)F)c(NCCCN2CCCOC2=O)n1 [Example 39] | 10 to 100 | 10 to 100 | 10 to 100 | 1 to 100
CN1CCN(c2ccc(Nc3ncc(C(F)(F)F)c(NCCCN4CCCOC4=O)n3)c(C3CC3)c2)CC1 [Example 41] | 10 to 100 | 10 to 100 | 10 to 100 | 1 to 100
CCc1cc(N2CCNCC2)ccc1Nc1ncc(C(F)(F)F)c(NCCCN2CCCOC2=O)n1 [Example 46] | 10 to 100 | 10 to 100 | 100 to 300 | 100 to 300
CN1CCN(c2ccc(Nc3ncc(C(F)(F)F)c(NCCCN4CCCOCC4=O)n3)c(C3CC3)c2)CC1 [Example 52] | 10 to 100 | 10 to 100 | 100 to 300 | 1 to 100
CN1CCN(c2ccc(Nc3ncc(Cl)c(NCCCN4CCCOCC4=O)n3)c(C3CC3)c2)CC1 [Example 55] | 100 to 300 | 10 to 100 | 100 to 300 | 100 to 300
CN1CCN(c2ccc(Nc3ncc(C(F)(F)F)c(NCCCN4CCOCCC4=O)n3)c(C3CC3)c2)CC1 [Example 70] | 10 to 100 | 10 to 100 | 10 to 100 | 1 to 100
CCc1cc(N2CC3CCC(C2)N3C)ccc1Nc1ncc(C(F)(F)F)c(NCCCN2CCOCCC2=O)n1 [Example 74] | 10 to 100 | 10 to 100 | – | 300 to 600
CCc1cc(N2CCN(C)CC2)ccc1Nc1ncc(Br)c(NCCCN2CCOCCC2=O)n1 [Example 76] | 10 to 100 | 10 to 100 | – | 100 to 300
CCc1cc(N2CCNCC2)ccc1Nc1ncc(C(F)(F)F)c(NCCCN2CCOCCC2=O)n1 [Example 84] | 10 to 100 | 10 to 100 | 100 to 300 | 100 to 300
CCc1cc(N2CCN(C)CC2)c(F)cc1Nc1ncc(C(F)(F)F)c(NCCCN2CCOCCC2=O)n1 [Example 86] | 10 to 100 | 10 to 100 | 10 to 100 | 1 to 100
O=C1OCCCN1CCCNc1nc(Nc2ccc(N3CCNCC3)cc2C2CC2)ncc1C(F)(F)F [Example 99] | 10 to 100 | 100 to 300 | 100 to 300 | 1 to 100
